The molecules below were run against PRMT5 (Homo sapiens, UniProt O14744) (assay: PRMT5 IC50 (Table 2; no method described)). Details: read-out: PRMT5_ IC50.
Assay type: biochemical

PRMT5, sequence (O14744 whole entry, species assumed): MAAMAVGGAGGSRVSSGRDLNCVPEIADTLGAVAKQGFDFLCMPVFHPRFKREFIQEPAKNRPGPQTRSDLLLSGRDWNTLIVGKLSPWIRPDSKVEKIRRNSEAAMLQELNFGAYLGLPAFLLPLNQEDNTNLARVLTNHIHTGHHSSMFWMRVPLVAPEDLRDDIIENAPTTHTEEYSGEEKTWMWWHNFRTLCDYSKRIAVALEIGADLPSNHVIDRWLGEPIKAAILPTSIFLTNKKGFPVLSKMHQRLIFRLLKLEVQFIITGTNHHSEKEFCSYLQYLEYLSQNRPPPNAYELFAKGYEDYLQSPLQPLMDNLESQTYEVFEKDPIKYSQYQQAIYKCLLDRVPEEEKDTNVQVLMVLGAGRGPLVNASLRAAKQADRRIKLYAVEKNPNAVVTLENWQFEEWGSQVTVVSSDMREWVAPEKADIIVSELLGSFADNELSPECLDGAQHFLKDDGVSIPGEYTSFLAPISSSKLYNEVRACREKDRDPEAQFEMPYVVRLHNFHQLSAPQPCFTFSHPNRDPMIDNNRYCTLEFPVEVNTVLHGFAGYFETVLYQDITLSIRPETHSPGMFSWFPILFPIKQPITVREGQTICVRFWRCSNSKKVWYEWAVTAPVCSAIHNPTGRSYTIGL
PRMT5, sequence (Q9BQA1 whole entry partner, species assumed): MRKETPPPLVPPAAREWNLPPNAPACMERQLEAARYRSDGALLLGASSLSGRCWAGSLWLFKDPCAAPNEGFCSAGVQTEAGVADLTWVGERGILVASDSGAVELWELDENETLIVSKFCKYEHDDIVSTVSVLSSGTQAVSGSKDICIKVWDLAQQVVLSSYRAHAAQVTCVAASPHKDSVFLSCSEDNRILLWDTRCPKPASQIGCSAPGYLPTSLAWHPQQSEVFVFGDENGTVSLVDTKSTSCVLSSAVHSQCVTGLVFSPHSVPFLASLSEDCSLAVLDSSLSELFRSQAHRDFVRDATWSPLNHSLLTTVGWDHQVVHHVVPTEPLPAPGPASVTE

Row | SMILES | IC50 [µM]
1 | Cc1c(C(=O)NCc2ccccc2)cc(-c2ccc(CN(C)CCN)cc2)c2cn[nH]c12 [Compound 7] | 22.5
2 | COc1cccc(Cn2cnc3ccc(-c4ccc(CN(C)CCN)cc4)cc32)c1 [Compound 8] | 16
3 | NCCNCc1ccc(-c2ccc3ncn(CC4CCNCC4)c3c2)cc1 [Compound 70] | 0.421
4 | CNCCN(C)Cc1cccc(-c2ccc3cnn(C(C)C)c3n2)c1 [Compound 73] | 50
5 | COc1ccccc1Cn1cnc2ccc(-c3ccc(CNCCN)cc3)cc21 [Compound 80] | 0.161
6 | NCCNCc1ccc(-c2ccc3ncn(CC4CCCNC4)c3c2)cc1 (stereo not shown) [Compound 81] | 0.321
7 | Cc1ccccc1Cn1cnc2ccc(-c3ccc(CNCCN)cc3)cc21 [Compound 82] | 0.236
8 | CC(C)n1ncc2c(NC(=O)OCc3ccccc3)cc(-c3cccc(CN(C)CCN)c3)nc21 [Compound 84] | 27.7
9 | COc1cccc(CCn2cnc3ccc(-c4ccc(CNCCN)cc4)cc32)c1 [Compound 94] | 0.0888
10 | CNCCN(C)Cc1cccc(-c2cc(N(C)C3CC3)c3cnn(C(C)C)c3n2)c1 [Compound 95] | 200
11 | Cc1ccc(Cn2cnc3ccc(-c4ccc(CNCCN)cc4)cc32)cc1 [Compound 97] | 0.0659
12 | CNCCN(C)Cc1cccc(-c2ccc3cnn(C(C)C)c3c2)c1 [Compound 100] | 50
13 | NCCNCc1ccc(-c2ccc3ncn(Cc4ccc(C(=O)N5CCCC5)cc4)c3c2)cc1 [Compound 104] | 0.1
14 | Cc1cccc(-n2cnc3ccc(-c4ccc(CNCCN)cc4)cc32)c1 [Compound 106] | 0.178
15 | COc1cccc(-n2cnc3ccc(-c4ccc(CNCCN)cc4)cc32)c1 [Compound 110] | 0.273
16 | COc1ccccc1-c1nc2ccc(-c3ccc(CNCCN)cc3)cc2[nH]1 [Compound 115] | 0.343

Each molecule was assayed on asymmetric di-methyl PABP1 in RKO cells (assay: In Cell Western (ICW) for asymmetric di-methyl PABP1 and DNA content in RKO cells). Details: Homo sapiens, RKO, In Cell Western.
Assay type: cell-based
Summary of the method: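 RKO cells treated with compound for 48 h at 37 °C, then fixed, methanol-permeabilized and stained for asymmetric di-methyl PABP1 (800 nm) with DRAQ5 DNA stain (700 nm). Signal ratio normalized to DMSO and 20 μM reference-compound controls. IC50 from nine 3-fold dilutions in triplicate.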

Row | SMILES | IC50 [µM]
17 | CN(CCN)Cc1cccc(-c2nc(NCc3cn4ccsc4n3)c3cnn(C4CC4)c3n2)c1 [Compound 5] | 20
18 | CNCCN(C)Cc1cccc(-c2nc(NCc3cn4ccsc4n3)c3cnn(C4CC4)c3n2)c1 [Compound 6] | 0.39
19 | CNCCN(C)Cc1cccc(-c2nc(NCc3ccccn3)c3cnn(C4CC4)c3n2)c1 [Compound 9] | 20
20 | CNCCN(C)Cc1cccc(-c2cc(-c3cnn(C)c3)c3cnn(C(C)C)c3n2)c1 [Compound 49, N1-(3-(1-isopropyl-4-(1-methyl-1H-pyrazol-4-yl)-1H-pyrazolo[3,4-b]pyridin-6-yl)benzyl)-N1,N2-dimethylethane-1,2-diamine] | 1.29
21 | CNCCN(C)Cc1cccc(-c2cc(N3CCC(OC)CC3)c3cnn(C(C)C)c3n2)c1 [Compound 51] | 5.39
22 | CCOc1cc(-c2cccc(CN(C)CCNC)c2)nc2c1cnn2C(C)C [Compound 53] | 3.47
23 | CC(C)n1ncc2c(C(=O)NCc3ccccc3Cl)cc(-c3cccc(CN(C)CCN)c3)nc21 [Compound 54] | 20
24 | CNCCN(C)Cc1cccc(-c2cc(N3CCCC(C#N)C3)c3cnn(C(C)C)c3n2)c1 (stereo not shown) [Compound 55] | 4.81
25 | CNCCN(C)Cc1cccc(-c2cc(C(=O)N3CCCCC3)c3cnn(C(C)C)c3n2)c1 [Compound 56] | 16.8
26 | CNCCN(C)Cc1cccc(-c2nc(NCc3cnn(C)c3C)c3cnn(C4CC4)c3n2)c1 [Compound 57] | 20
27 | CNCCN(C)Cc1cccc(-c2cc(NC3COC3)c3cnn(C(C)C)c3n2)c1 [Compound 58] | 3.2
28 | CC(C)n1cc2c(Cl)cc(-c3cccc(CN(C)CCN)c3)nc2n1 [Compound 59] | 15.5
29 | CC(C)n1ncc2c(N3CCOCC3)cc(-c3cccc(CN(C)CCN)c3)nc21 [Compound 61, N1-(3-(1-isopropyl-4-morpholino-1H-pyrazolo[3,4-b]pyridin-6-yl)benzyl)-N1-methylethane-1,2-diamine] | 5.66
30 | CN(CCN)Cc1cccc(-c2nc(NCc3ccncc3)c3cnn(C4CC4)c3n2)c1 [Compound 66] | 20
31 | COC(=O)Nc1cc(-c2cccc(CN(C)CCN)c2)nc2c1cnn2C(C)C [Compound 71] | 11
32 | CCNc1cc(-c2cccc(CN(C)CCNC)c2)nc2c1cnn2C(C)C [Compound 72] | 5.36
33 | CNCCN(C)Cc1cccc(-c2ccc3cnn(C(C)C)c3n2)c1 [Compound 73] | 20
34 | CNCCN(C)Cc1cccc(-c2cc(C#N)c3cnn(C(C)C)c3n2)c1 [Compound 74] | 20
35 | CNCCN(C)Cc1cccc(-c2cc(NC3CCOCC3)c3cnn(C(C)C)c3n2)c1 [Compound 76] | 1.63
36 | CCOC(=O)c1cc(-c2cccc(CN(C)CCNC)c2)nc2c1cnn2C(C)C [Compound 78] | 13
37 | CNCCN(C)Cc1cccc(-c2cc(N3CCC3)c3cnn(C(C)C)c3n2)c1 [Compound 79] | 20
38 | CC(C)n1ncc2c(NC(=O)OCc3ccccc3)cc(-c3cccc(CN(C)CCN)c3)nc21 [Compound 84] | 13.3
39 | CNCCN(C)Cc1cccc(-c2cc(NC(=O)NC(C)C)c3cnn(C(C)C)c3n2)c1 [Compound 85] | 2.58

Row | SMILES | IC50 [µM]
40 | CC(C)NC(=O)Nc1cc(-c2cccc(CN(C)CCN)c2)nc2c1cnn2C(C)C [Compound 86] | 3.46
41 | CNCCN(C)Cc1cccc(-c2cc(C(=O)NC3CCOCC3)c3cnn(C4CC4)c3n2)c1 [Compound 87] | 2.17
42 | CNCCN(C)Cc1cccc(-c2cc(N3CCC(C#N)CC3)c3cnn(C(C)C)c3n2)c1 [Compound 93] | 1.65
43 | CNCCN(C)Cc1cccc(-c2cc(N(C)C3CC3)c3cnn(C(C)C)c3n2)c1 [Compound 95] | 6.8
44 | CN(CCN)Cc1cccc(-c2nc(NC3CC3)c3cnn(C4CC4)c3n2)c1 [Compound 96] | 12.5
45 | CNCCN(C)Cc1cccc(-c2cc(C(=O)NCc3ccccn3)c3cnn(C(C)C)c3n2)c1 [Compound 98] | 1.6
46 | CNCCN(C)Cc1cccc(-c2nc(N3CCOCC3)c3cnn(C(C)C)c3n2)c1 [Compound 99] | 1.54
47 | CC(C)n1ncc2c(NC3CCOCC3)cc(-c3cccc(CN(C)CCN)c3)nc21 [Compound 101] | 6.31
48 | CNCCN(C)Cc1cccc(-c2cc(OC3CCOC3)c3cnn(C(C)C)c3n2)c1 (stereo not shown) [Compound 102] | 10.9
49 | CNCCN(C)Cc1cccc(-c2cc(N(C)C)c3cnn(C(C)C)c3n2)c1 [Compound 103] | 10.3
50 | CNCCN(C)Cc1cccc(-c2cc(C(=O)NCC3CCOCC3)c3cnn(C(C)C)c3n2)c1 [Compound 105] | 1.36
51 | CC(C)n1ncc2c(NS(=O)(=O)N(C)C)cc(-c3cccc(CN(C)CCN)c3)nc21 [Compound 107] | 11.8
52 | CC(C)n1ncc2c(C(=O)NCC3CCOCC3)cc(-c3cccc(CN(C)CCN)c3)nc21 [Compound 108] | 1.13
53 | CNCCN(C)Cc1cccc(-c2nc(N(C)C3CCOCC3)c3cnn(C4CC4)c3n2)c1 [Compound 109, N1-(3-(1-cyclopropyl-4-(methyl(tetrahydro-2H-pyran-4-yl)amino)-1H-pyrazolo[3,4-d]pyrimidin-6-yl)benzyl)-N1,N2-dimethylethane-1,2-diamine] | 10.7
54 | CCS(=O)(=O)Nc1cc(-c2cccc(CN(C)CCN)c2)nc2c1cnn2C(C)C [Compound 111] | 11.9
55 | CNCCN(C)Cc1cccc(-c2nc(NC3CC3)c3cnn(C4CC4)c3n2)c1 [Compound 114] | 20
56 | CC(C)n1ncc2c(NC(=O)N(C)C)cc(-c3cccc(CN(C)CCN)c3)nc21 [Compound 116] | 2.62
57 | CN(CCN)Cc1cccc(-c2nc(N(C)C3CCOCC3)c3cnn(C4CC4)c3n2)c1 [Compound 119] | 1.37
58 | CNCCN(C)Cc1cccc(-c2cc(C(=O)NCc3cc(C)nn3C)c3cnn(C(C)C)c3n2)c1 [Compound 120] | 1.53
59 | CNCCN(C)Cc1cccc(-c2cc(NC)c3cnn(C(C)C)c3n2)c1 [Compound 121] | 7.45
60 | CNCCN(C)Cc1cccc(-c2cc(NC(=O)N(C)C)c3cnn(C(C)C)c3n2)c1 [Compound 123] | 4.78
61 | CNCCN(C)Cc1cccc(-c2cc(OC)c3cnn(C(C)C)c3n2)c1 [Compound 124] | 17.8

Source: patent publication US20170280720A1, “ARGININE […] INHIBITORS AND USES THEREOF” (EPIZYME, INC., priority 2014, published 2017)
